Assay results reported in article PMC8333062, “Chemical tools for epichaperome-mediated interactome dysfunctions of the central nervous system” (Nature Communications, 2021).
“And” between values parts separate entries of the source, which are not always exact repeats. Identical values can stand only once. Like-named read-outs stand apart in the source and are kept apart here.

Tests used:
[1] = Pharmacokinetic studies in mice (LC-MS/MS); format: in vivo, B6D2F1 mice; parameters: key to Brain level: brain drug concentration in μM, corrected for 0.8 mL/g water space; Plasma level: unit: uM; conditions: for Brain level / Plasma level: listed as PU-HZ151
Experimental: Blood and brain tissue were collected following euthanasia at the scheduled time points of 5, 30 min, 1, 4, and 8 h following iv dosing and of 30 min, 1, 4, and 8 h following po dosing. Brain samples were immediately flash frozen in liquid nitrogen following collection and stored at −80 °C until analysis. Blood samples were collected into an EDTA tube by heart puncture and centrifuged at 17,000×g for 5 min at 4 °C to separate the plasma and immediately frozen on dry ice and stored at −80 °C until analysis. […] This was homogenized, extracted with methylene chloride, and evaporated on a GeneVac. […] Drug concentration (μM) in the brain was then modified to account for an average water space of 0.8 mL g^−1.

[2] = test system: HepG2 cells (Pgp +ve); assay: Cell viability, ATP levels 72 h; format: cell-based, human; conditions: for Cell viability (ATP levels): HEPG2
Experimental: Supplementary Fig. 15: PU-HZ151 activity in cells is unaffected by Pgp overexpression. a Two Pgp-positive cells lines, Kasumi-1 and HepG2, were tested for epichaperome-positivity. β-Actin, loading control. b ATP levels in cell treated for 72 h with 0 to 1 µM PU-HZ151. Data are presented as means ±s.e.m. of three experimental repeats. Control, vehicle (DMSO) treated cells. c Western blot analysis of aberrant signaling pathway inhibition by […]
(also on this page, place not known: MDA‐MB-468ASPC1Kasumi Hep G2 ATP levels %Control MDA‐MB-468ASPC1Kasumi 1Hep G2 β-Actin HSP90α Native-PAGE SDS PAGE 100- β-Actin 1)

[3] = target: T1, 70 key receptor, enzyme, and ion channel proteins (Homo sapiens, UniProt P49146); assay: General side effect profile (SEP) II diversity panel; format: binding; conditions: 1.0E-5 M
T1 construct: purchased Caliper Life Sciences (now PerkinElmer), NOVASCREEN General SEP II

[4] = target: T2, 70 key receptor, enzyme, and ion channel proteins (Homo sapiens, UniProt P17612); assay: as above; format: binding; conditions: 1.0E-5 M
T2 construct: purchased Caliper Life Sciences (now PerkinElmer), NOVASCREEN General SEP II

[5] = target: T3, 70 key receptor, enzyme, and ion channel proteins (Homo sapiens, UniProt P25101); assay: as above; format: binding; conditions: 1.0E-5 M
T3 construct: purchased Caliper Life Sciences (now PerkinElmer), NOVASCREEN General SEP II

[6] = target: T4, 70 key receptor, enzyme, and ion channel proteins (Homo sapiens, UniProt P07550); assay: as above; format: binding; conditions: 1.0E-5 M
T4 construct: purchased Caliper Life Sciences (now PerkinElmer), NOVASCREEN General SEP II

[7] = target: T5, 70 key receptor, enzyme, and ion channel proteins (Homo sapiens, UniProt Q99808); assay: as above; format: binding; conditions: 1.0E-5 M
T5 construct: purchased Caliper Life Sciences (now PerkinElmer), NOVASCREEN General SEP II

[8] = target: T6, 70 key receptor, enzyme, and ion channel proteins (Homo sapiens, UniProt O76074); assay: as above; format: binding; conditions: 1.0E-5 M
T6 construct: purchased Caliper Life Sciences (now PerkinElmer), NOVASCREEN General SEP II

[9] = target: T7, muscarinic receptor M5 (printed "MS") (Homo sapiens, UniProt P08912); assay: as above; format: binding; conditions: human; 1.0E-5 M; read-out: Percent Inhibition: Muscarinic, MS (h)
T7 construct: purchased Caliper Life Sciences (now PerkinElmer), NOVASCREEN General SEP II

[10] = target: T8, 70 key receptor, enzyme, and ion channel proteins (Homo sapiens, UniProt P20309); assay: as above; format: binding
T8 construct: purchased Caliper Life Sciences (now PerkinElmer), NOVASCREEN General SEP II

[11] = target: T9, 70 key receptor, enzyme, and ion channel proteins (Homo sapiens, UniProt P21731); assay: as above; format: binding; conditions: 1.0E-5 M
T9 construct: purchased Caliper Life Sciences (now PerkinElmer), NOVASCREEN General SEP II

[12] = target: T10, 70 key receptor, enzyme, and ion channel proteins (Homo sapiens, UniProt P50406); assay: as above; format: binding; conditions: 1.0E-5 M
T10 construct: purchased Caliper Life Sciences (now PerkinElmer), NOVASCREEN General SEP II

[13] = target: T11, 70 key receptor, enzyme, and ion channel proteins (Homo sapiens, UniProt P08172); assay: as above; format: binding; conditions: 1.0E-5 M
T11 construct: purchased Caliper Life Sciences (now PerkinElmer), NOVASCREEN General SEP II

[14] = target: T12, 70 key receptor, enzyme, and ion channel proteins (Homo sapiens, UniProt P29274); assay: as above; format: binding; conditions: 1.0E-5 M
T12 construct: purchased Caliper Life Sciences (now PerkinElmer), NOVASCREEN General SEP II

[15] = target: 70 key receptor, enzyme, and ion channel proteins (Homo sapiens, UniProt P11229); assay: as above; format: binding
[16] = target: T13, 70 key receptor, enzyme, and ion channel proteins (Homo sapiens, UniProt P21728); assay: as above; format: binding; conditions: 1.0E-5 M
T13 construct: purchased Caliper Life Sciences (now PerkinElmer), NOVASCREEN General SEP II

[17] = target: T14, 70 key receptor, enzyme, and ion channel proteins (Homo sapiens, UniProt P34969); assay: as above; format: binding; conditions: 1.0E-5 M
T14 construct: purchased Caliper Life Sciences (now PerkinElmer), NOVASCREEN General SEP II

[18] = target: T15, 70 key receptor, enzyme, and ion channel proteins (Homo sapiens, UniProt P08908); assay: as above; format: binding
T15 construct: purchased Caliper Life Sciences (now PerkinElmer), NOVASCREEN General SEP II

[19] = target: T16, 70 key receptor, enzyme, and ion channel proteins (Homo sapiens, UniProt P17252); assay: as above; format: binding; conditions: 1.0E-5 M
T16 construct: purchased Caliper Life Sciences (now PerkinElmer), NOVASCREEN General SEP II

[20] = target: T17, 70 key receptor, enzyme, and ion channel proteins (Homo sapiens, UniProt P21917); assay: as above; format: binding; conditions: 1.0E-5 M
T17 construct: purchased Caliper Life Sciences (now PerkinElmer), NOVASCREEN General SEP II
T17 sequence (P21917 whole entry): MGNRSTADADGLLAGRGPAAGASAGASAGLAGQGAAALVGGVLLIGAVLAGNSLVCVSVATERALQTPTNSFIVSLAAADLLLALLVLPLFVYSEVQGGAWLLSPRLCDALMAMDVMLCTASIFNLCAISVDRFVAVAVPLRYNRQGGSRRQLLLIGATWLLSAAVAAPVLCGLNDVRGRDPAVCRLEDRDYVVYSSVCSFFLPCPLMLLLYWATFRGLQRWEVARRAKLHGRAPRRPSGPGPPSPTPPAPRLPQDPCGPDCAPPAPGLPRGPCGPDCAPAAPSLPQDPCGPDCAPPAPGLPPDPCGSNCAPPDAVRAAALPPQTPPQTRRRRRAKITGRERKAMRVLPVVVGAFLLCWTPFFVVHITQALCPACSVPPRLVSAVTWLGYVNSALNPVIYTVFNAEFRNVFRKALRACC

T11 sequence (P08172 whole entry): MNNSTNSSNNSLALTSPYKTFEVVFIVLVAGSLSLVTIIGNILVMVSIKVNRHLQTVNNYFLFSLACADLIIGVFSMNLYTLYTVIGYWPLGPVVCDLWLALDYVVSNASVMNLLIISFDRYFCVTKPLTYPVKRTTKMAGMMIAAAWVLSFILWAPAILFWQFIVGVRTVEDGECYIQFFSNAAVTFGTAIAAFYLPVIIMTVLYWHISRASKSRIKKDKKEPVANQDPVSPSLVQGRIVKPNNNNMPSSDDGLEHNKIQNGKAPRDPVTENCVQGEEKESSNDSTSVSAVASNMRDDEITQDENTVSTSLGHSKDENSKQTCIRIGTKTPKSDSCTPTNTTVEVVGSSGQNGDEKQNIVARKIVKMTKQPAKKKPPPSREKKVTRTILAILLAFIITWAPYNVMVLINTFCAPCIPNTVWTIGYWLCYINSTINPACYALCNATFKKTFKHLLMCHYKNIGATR
T1 sequence (P49146 whole entry): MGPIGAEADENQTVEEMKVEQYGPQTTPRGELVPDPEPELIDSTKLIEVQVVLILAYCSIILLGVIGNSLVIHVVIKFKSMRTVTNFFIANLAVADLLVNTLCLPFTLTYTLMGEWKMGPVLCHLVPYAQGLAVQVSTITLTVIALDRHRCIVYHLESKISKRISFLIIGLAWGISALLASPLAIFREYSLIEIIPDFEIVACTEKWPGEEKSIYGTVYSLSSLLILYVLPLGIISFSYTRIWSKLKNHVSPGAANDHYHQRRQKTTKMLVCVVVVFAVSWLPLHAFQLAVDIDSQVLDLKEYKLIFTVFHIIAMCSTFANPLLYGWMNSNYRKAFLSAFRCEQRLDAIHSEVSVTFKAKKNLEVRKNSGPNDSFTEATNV
T10 sequence (P50406 whole entry): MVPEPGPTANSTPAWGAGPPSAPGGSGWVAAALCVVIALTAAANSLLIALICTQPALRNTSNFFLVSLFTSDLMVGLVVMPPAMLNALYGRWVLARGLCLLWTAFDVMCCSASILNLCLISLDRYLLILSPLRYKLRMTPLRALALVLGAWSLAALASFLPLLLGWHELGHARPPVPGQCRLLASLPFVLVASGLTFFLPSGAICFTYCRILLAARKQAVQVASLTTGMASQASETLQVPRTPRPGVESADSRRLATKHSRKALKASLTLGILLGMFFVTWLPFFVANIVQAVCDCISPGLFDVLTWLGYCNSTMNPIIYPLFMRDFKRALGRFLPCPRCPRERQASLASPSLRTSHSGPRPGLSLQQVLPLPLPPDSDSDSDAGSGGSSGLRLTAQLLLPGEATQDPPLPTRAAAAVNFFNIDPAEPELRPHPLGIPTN
T7 sequence (P08912 whole entry): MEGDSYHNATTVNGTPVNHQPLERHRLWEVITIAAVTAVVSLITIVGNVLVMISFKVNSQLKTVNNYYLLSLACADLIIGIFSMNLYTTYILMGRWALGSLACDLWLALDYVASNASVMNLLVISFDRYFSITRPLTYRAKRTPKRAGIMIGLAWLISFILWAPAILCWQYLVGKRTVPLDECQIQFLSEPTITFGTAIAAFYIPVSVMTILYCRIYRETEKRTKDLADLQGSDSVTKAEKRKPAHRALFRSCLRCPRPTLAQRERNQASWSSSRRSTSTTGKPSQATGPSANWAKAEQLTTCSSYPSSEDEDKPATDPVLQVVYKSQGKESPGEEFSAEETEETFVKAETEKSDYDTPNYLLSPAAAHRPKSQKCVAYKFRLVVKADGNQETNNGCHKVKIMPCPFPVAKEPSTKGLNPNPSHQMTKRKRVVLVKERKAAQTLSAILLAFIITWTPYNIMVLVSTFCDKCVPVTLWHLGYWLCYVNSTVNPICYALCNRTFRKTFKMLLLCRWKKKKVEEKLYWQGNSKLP
T5 sequence (Q99808 whole entry): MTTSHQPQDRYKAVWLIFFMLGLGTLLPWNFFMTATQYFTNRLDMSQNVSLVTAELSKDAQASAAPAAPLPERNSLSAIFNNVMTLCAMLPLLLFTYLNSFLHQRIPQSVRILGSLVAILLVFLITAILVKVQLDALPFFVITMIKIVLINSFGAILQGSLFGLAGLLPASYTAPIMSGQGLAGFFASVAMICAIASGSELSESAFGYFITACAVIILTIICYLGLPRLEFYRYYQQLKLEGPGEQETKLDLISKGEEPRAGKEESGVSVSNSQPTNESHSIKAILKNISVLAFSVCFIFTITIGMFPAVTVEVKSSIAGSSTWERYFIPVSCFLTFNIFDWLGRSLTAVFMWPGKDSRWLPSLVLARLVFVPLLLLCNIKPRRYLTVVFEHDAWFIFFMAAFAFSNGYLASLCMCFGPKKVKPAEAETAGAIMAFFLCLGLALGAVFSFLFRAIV
70 key receptor, enzyme, and ion channel proteins (Homo sapiens, UniProt P11229), sequence (P11229 whole entry): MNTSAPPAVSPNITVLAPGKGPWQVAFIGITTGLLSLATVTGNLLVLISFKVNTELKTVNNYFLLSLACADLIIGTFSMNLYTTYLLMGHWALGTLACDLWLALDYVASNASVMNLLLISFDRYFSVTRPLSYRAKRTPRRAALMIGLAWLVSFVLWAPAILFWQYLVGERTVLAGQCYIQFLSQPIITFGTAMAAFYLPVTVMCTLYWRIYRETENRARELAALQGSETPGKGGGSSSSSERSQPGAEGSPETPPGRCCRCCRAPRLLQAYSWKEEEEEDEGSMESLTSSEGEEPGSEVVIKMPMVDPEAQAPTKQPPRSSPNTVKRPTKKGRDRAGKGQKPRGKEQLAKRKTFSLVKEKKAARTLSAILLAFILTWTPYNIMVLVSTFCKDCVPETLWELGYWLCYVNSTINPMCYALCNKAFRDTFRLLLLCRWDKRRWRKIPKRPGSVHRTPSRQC
T15 sequence (P08908 whole entry): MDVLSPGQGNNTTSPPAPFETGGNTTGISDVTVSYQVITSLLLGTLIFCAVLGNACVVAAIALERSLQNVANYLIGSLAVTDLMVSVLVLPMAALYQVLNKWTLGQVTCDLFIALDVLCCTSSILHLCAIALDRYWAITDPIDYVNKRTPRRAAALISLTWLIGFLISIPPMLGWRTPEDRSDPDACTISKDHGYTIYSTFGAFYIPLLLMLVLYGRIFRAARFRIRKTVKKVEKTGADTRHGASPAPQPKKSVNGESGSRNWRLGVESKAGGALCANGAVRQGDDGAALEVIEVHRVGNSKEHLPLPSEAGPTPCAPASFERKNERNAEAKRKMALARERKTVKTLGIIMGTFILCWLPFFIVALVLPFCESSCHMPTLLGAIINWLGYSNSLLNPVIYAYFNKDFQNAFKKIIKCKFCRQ
T9 sequence (P21731 whole entry): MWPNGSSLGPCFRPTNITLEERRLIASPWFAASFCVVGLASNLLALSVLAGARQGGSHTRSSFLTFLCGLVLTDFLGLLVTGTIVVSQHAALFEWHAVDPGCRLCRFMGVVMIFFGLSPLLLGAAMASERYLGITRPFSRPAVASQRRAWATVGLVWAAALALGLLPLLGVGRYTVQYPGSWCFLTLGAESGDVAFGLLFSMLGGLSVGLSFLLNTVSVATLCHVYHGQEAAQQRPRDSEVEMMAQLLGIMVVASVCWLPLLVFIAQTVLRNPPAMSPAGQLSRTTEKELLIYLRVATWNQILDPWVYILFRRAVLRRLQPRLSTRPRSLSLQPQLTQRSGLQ

## CC(C)(C)CNCCn1c(Sc2cc3c(cc2I)OCO3)nc2c(N)ncnc21 [Compound 85]
[1]; time 5 min, individual animals
  Brain level: 15.4588 and 7.86 and 11.67
  Plasma level: 9.01 and 9.336 and 14.2069 and 3.61
[1]; time 0.5 h, individual animals
  Brain level: 4.224 and 4.34 and 4.57
  Plasma level: 1.67 and 1.018 and 1.136 and 1.35
[1]; time 1 h, individual animals
  Brain level: 2.2188 and 1.91 and 1.47
  Plasma level: 0.32 and 0.7228 and 0.6745 and 0.42
[1]; time 4 h, individual animals
  Brain level: 0.07412 and 0.06266 and 0.11 and 0.04
  Plasma level: 0.02 and 0.03223 and 0.03275 and 0.03
[1]; time 8 h, individual animals
  Brain level: 0.009121 and 0.03148 and 0.03 and 0.11
  Plasma level: 0.01 (2×) and 0 (2×)
[1]; i.v. 10 mg kg^−1
  brain exposure relative to PU-H71: approximately ten-fold higher
[1]; male, B6D2F1, mouse, brain and lung, iv, single i.v. 10 mg/kg
  Cmax: 10 to 15 µM
[1]; male, B6D2F1, mouse, brain, 10 mg kg^−1, oral administration, read-out: brain/plasma
  Kp: 1.6
[1]; male, B6D2F1, mouse, brain, intravenous, 10 mg kg^-1, Brain, time 5 min, individual animals, read-out: Brain level
  concentration at 5 min: 13.5 µM
[1]; male, B6D2F1, mouse, brain, intravenous, 10 mg kg^−1, Brain, time 0.5 h, individual animals, read-out: Brain level
  concentration at 0.5 h: 4.58 µM
[1]; male, B6D2F1, mouse, brain, intravenous, 10 mg kg^−1, Brain, time 1 h, individual animals, read-out: Brain level
  concentration at 1 h: 2.06 µM
[1]; male, B6D2F1, mouse, brain, iv, 10 mg kg^−1, read-out: brain to plasma ratio
  Kp: 2.35
[1]; male, B6D2F1, mouse, brain, iv, i.v. 10 mg kg^−1, read-out: brain exposure, AUC
  AUC: 8.25 µM·h
[1]; male, B6D2F1, mouse, plasma, iv, i.v. 10 mg kg^−1, read-out: plasma exposure, AUC
  AUC: 3.52 µM·h
[1]; male, B6D2F1, mouse, plasma, oral, 10 mg kg^−1
  bioavailability: 68%
[2]
  activity in Pgp-overexpressing vs Pgp-low cells: comparable activity
[2]; 1.95312 nM, replicates, listed as PU-HZ151, 0.00195312 µM
  Cell viability (ATP levels): 87.8706 and 102.165
[2]; 3.90625 nM, replicates, listed as PU-HZ151, 0.00390625 µM
  Cell viability (ATP levels): 90.4471 and 81.5412
[2]; 7.8125 nM, replicates, listed as PU-HZ151, 0.0078125 µM
  Cell viability (ATP levels): 90.4471 and 73.8824
[2]; 15.625 nM, replicates, listed as PU-HZ151, 0.015625 µM
  Cell viability (ATP levels): 83.4588 and 82.6941
[2]; 31.25 nM, replicates, listed as PU-HZ151, 0.03125 µM
  Cell viability (ATP levels): 65.6706 and 60.9647
[2]; 62.5 nM, replicates, listed as PU-HZ151, 0.0625 µM
  Cell viability (ATP levels): 37.2471 and 23.6471
[2]; 125 nM, replicates, listed as PU-HZ151, 0.125 µM
  Cell viability (ATP levels): 13.5294 and 11.2118
[2]; 500 nM, replicates, listed as PU-HZ151, 0.5 µM
  Cell viability (ATP levels): 2.612 and 2.282
[2]; 1000 nM, replicates, listed as PU-HZ151, 1 µM
  Cell viability (ATP levels): 1.824
[2]; Homo sapiens, HepG2, HEPG2, 1.95312 nM, replicates
  viability at 0.00195312 µM: 99.4%
[2]; Homo sapiens, HepG2, HEPG2, 3.90625 nM, replicates
  viability at 0.00390625 µM: 81.2%
[2]; Homo sapiens, HepG2, HEPG2, 7.8125 nM, replicates
  viability at 0.0078125 µM: 79.7%
[2]; Homo sapiens, HepG2, HEPG2, 15.625 nM, replicates
  viability at 0.015625 µM: 72.1%
[2]; Homo sapiens, HepG2, HEPG2, 31.25 nM, replicates
  viability at 0.03125 µM: 70.3%
[2]; Homo sapiens, HepG2, HEPG2, 62.5 nM, replicates
  viability at 0.0625 µM: 27.4%
[2]; Homo sapiens, HepG2, HEPG2, 125 nM, replicates
  viability at 0.125 µM: 16.9%
[2]; Homo sapiens, HepG2, HEPG2, 250 nM, replicates
  viability at […]: 2.72%
[2]; Homo sapiens, HepG2, HEPG2, 500 nM, replicates
  viability at 0.5 µM: 1.86%
[2]; Homo sapiens, HepG2, HEPG2, 1000 nM, replicates
  viability at 1 µM: 1.85%
[3]
  Percent Inhibition: Neuropeptide, NPY2 (h): 28.79%
[4]
  Percent Inhibition: Kinase, Protein, PKA (h): 0.09%
[5]
  Percent Inhibition: Endothelin, ET-A (h): 13.54%
[6]
  Percent Inhibition: Adrenergic, Beta 2 (h): 3.05%
[7]
  Percent Inhibition: Adenosine Transporter (h): -3.54%
[8]
  Percent Inhibition: Phosphodiesterase, PDE5Al (h): -35.00%
[9]
  inhibition at 10 µM: 69.9%
[10]
  Percent Inhibition: Muscarinic, M3 (h): 50.76%
[11]
  Percent Inhibition: Thromboxane AZ (h): 20.84%
[12]
  Percent Inhibition: Serotonin, 5HT6 (h): 17.73%
[13]
  Percent Inhibition: Muscarinic, M2 (h): 45.44%
[14]
  Percent Inhibition: Adenosine, A2A (h): 0.79%
[15]
  Percent Inhibition: Muscarinic, Ml (hr): 26.84%
[16]
  Percent Inhibition: Dopamine, Dl (h): 8.03%
[17]
  Percent Inhibition: Serotonin, 5HT7 (h): 14.36%
[18]
  Percent Inhibition: Serotonin, 5HT1A (h): -16.30%
[19]
  Percent Inhibition: Kinase, Protein, PKCa (h): 11.20%
[20]
  Percent Inhibition: Dopamine, D4. 4 (h): 10.85%
